Results taken from patent US20100255580A1, “Differentiation of Human Embryonic Stem Cells” (LIFESCCAN, INC., priority 2007, published 2010).
Values joined by “and” are separate entries in the source; they are usually repeats but may differ in a detail not shown here. Equal values may be shown once.

Tests used:
[1] = system: human embryonic stem cell line H9; test: Real-time PCR, H9 maintained on […] and differentiated on MEFs (Example 25); assay type: cell-based; conditions: Wnt3a 20 ng/ml added to 100 ng/ml activin A; increases over time
Description: Cells from the human embryonic stem cell line H9 cultured on […]™ for at least five passages were seeded onto MEF feeders in ES media.
At day 3 and 5, the cultures were analyzed by real time PCR for SOX-17, SOX-7, Alpha-fetal protein (AFP), CXCR4, Brychyury (Bry), gooscecoid (GSC), HNF-3 beta, GATA4, hTERT and Oct4. AFP and SOX-7 are regarded as visceral endoderm markers while GATA4, HNF-3beta and SOX-17 represent definite endoderm markers and GSC, Bry, and CXCR4 represent markers of primitive streak. hTERT and Oct-4 are markers for self renewal and pluripotency respectively. FACS analysis was also performed at day 3 and 5.

[2] = system: human embryonic stem cell line H9; test: Cytokine array analysis of cell lysates and conditioned media; assay type: cell-based; set-up: key to BMP-4 expression / BMP-6 expression / EGF expression / FGF-6 expression / Fractalkine expression / GCP-2 expression / IL-3 expression / IL-4 expression / IL-6 expression / M-CSF expression / MIG expression / Amphiregulin expression: cytokine array signal, normalized and background-subtracted
Description: The effect that Wnt-3a treatment has on cytokine expression was analyzed using a protein array. Cells of the human embryonic stem cell line H9 were cultured according to the methods described in Example 15. At passage 54, cells were differentiated in the presence of 100 ng/ml ActivinA+/−10 ng/ml Wnt3a for 2 days in 0.5% FBS DMEM/F12. Cells were subsequently cultured for an additional three days in 100 ng/mlActivin A and 2% FBS DMEM/F12. At the end of the 5th day, CXCR4 expression was determined by FACS for each treatment group.
Cell lysates were prepared from cells of each treatment group, with a mammalian cell lysis kit (Sigma-Aldrich, MO). Conditioned media from each treatment group was collected and concentrated. Cytokine array analysis was completed using Cytokine Array panels provided by RayBiotech, GA (http://www.raybiotech.com/). Table VII lists cytokine, growth factor, and receptor expression following normalization of the data and background subtraction. For each panel, positive and negative controls are also included. Th data shown are two independent samples per cell treatment group (1,2).

Wnt-3a
AFP expression [1]: increase in the expression of AFP
1L-1beta expression ([2]; Cell conditioned media): 316.59 and 278.30
1L-1ra expression ([2]; Cell conditioned media): 354.23 and 581.75
Acrp30 expression ([2]; Cell conditioned media): 2,795.71 and 2,302.99
AgRP expression ([2]; Cell conditioned media): 651.26 and 482.21
Amphiregulin expression ([2]; Cell conditioned media): 619.07 and 782.60
Angiogenin expression ([2]; Cell conditioned media): 57,442.48 and 54,969.04
Angiopoietin-2 expression ([2]; Cell conditioned media): 65,959.24 and 71,664.21
AxI expression ([2]; Cell conditioned media): 610.40 and 748.34
BDNF expression ([2]; Cell conditioned media): 770.08 and 715.86
BLC expression ([2]; Cell conditioned media): 337.12 and 249.80
BMP-6 expression ([2]; Cell conditioned media): 985.70 and 670.60
CK beta 8-1 expression ([2]; Cell conditioned media): 42.78 and 75.44
CNTF expression ([2]; Cell conditioned media): 787.19 and 541.51
EGF expression ([2]; Cell conditioned media): 23,331.57 and 22,768.53
Eotaxin-2 expression ([2]; Cell conditioned media): 2,156.21 and 1,445.14
Eotaxin-3 expression ([2]; Cell conditioned media): 2,140.81 and 1,480.35
FGF-6 expression ([2]; Cell conditioned media): 3,283.94 and 2,519.78
Flt-3 Ligand expression ([2]; Cell conditioned media): 511.67 and 792.98
Fractalkine expression ([2]; Cell conditioned media): 359.37 and 367.15
GCP-2 expression ([2]; Cell conditioned media): 451.78 and 362.12
GDNF expression ([2]; Cell conditioned media): 443.22 and 509.66
GM-CSF expression ([2]; Cell conditioned media): 1,808.82 and 1,446.82
I-309 expression ([2]; Cell conditioned media): 318.30 and 288.36
IFN-gamma expression ([2]; Cell conditioned media): 1,238.97 and 1,435.08
IGF-I expression ([2]; Cell conditioned media): 254.98 and 187.77
IGFBP-1 expression ([2]; Cell conditioned media): 227.60 and 155.91
IGFBP-2 expression ([2]; Cell conditioned media): 42,215.53 and 43,934.33
IGFBP-4 expression ([2]; Cell conditioned media): 18,988.34 and 13,380.14
IL-1alpha expression ([2]; Cell conditioned media): 3,999.26 and 3,545.79
IL-2 expression ([2]; Cell conditioned media): 758.10 and 881.84
IL-3 expression ([2]; Cell conditioned media): 11,345.78 and 12,174.73
IL-4 expression ([2]; Cell conditioned media): 804.30 and 673.95
IL-5 expression ([2]; Cell conditioned media): 2,120.27 and 1,713.38
IL-6 expression ([2]; Cell conditioned media): 9,774.82 and 9,991.93
IL-10 expression ([2]; Cell conditioned media): 1,625.71 and 1,129.96
IL-13 expression ([2]; Cell conditioned media): 2,522.42 and 1,807.27
IL-15 expression ([2]; Cell conditioned media): 2,495.04 and 1,981.62
IL-16 expression ([2]; Cell conditioned media): 436.38 and 405.71
LIGHT expression ([2]; Cell conditioned media): 1,346.78 and 1,108.17
Leptin expression ([2]; Cell conditioned media): 7,238.71 and 4,886.99
M-CSF expression ([2]; Cell conditioned media): 740.98 and 684.01
MCP-1 expression ([2]; Cell conditioned media): 2,015.89 and 1,567.53
MCP-2 expression ([2]; Cell conditioned media): 694.78 and 694.07
MCP-3 expression ([2]; Cell conditioned media): 701.62 and 583.42
MCP-4 expression ([2]; Cell conditioned media): 231.02 and 276.62
MIP-1-delta expression ([2]; Cell conditioned media): 474.02 and 291.71
MIP-3-alpha expression ([2]; Cell conditioned media): 208.78 and 184.41
NAP-2 expression ([2]; Cell conditioned media): 371.35 and 343.68
NT-3 expression ([2]; Cell conditioned media): 571.57 and 427.51
PARC expression ([2]; Cell conditioned media): 474.02 and 363.80
PDGF-BB expression ([2]; Cell conditioned media): 2,635.37 and 2,005.09
RANTES expression ([2]; Cell conditioned media): 682.80 and 855.01
SCF expression ([2]; Cell conditioned media): 1,394.69 and 2,155.98
SDF-1 expression ([2]; Cell conditioned media): 326.85 and 616.95
TGF-beta 1 expression ([2]; Cell conditioned media): 1,827.65 and 1,849.18
TGF-beta 3 expression ([2]; Cell conditioned media): 294.34 and 343.68
TNF-alpha expression ([2]; Cell conditioned media): 2,609.70 and 2,167.71
TNF-beta expression ([2]; Cell conditioned media): 1,701.01 and 1,637.94
bFGF expression ([2]; Cell conditioned media): 1,226.99 and 1,241.09
1L-1beta expression ([2]; Cell lysate): 352.05 and 312.08
1L-1ra expression ([2]; Cell lysate): 302.68 and 198.48
Acrp30 expression ([2]; Cell lysate): 601.61 and 690.66
AgRP expression ([2]; Cell lysate): 77.82 and 89.00
Angiogenin expression ([2]; Cell lysate): 619.40 and 750.85
AxI expression ([2]; Cell lysate): 88.59 and 139.03
BDNF expression ([2]; Cell lysate): 763.51 and 951.45
BLC expression ([2]; Cell lysate): 742.24 and 476.36
BMP-4 expression ([2]; Cell lysate): 348.44 and 304.48
BMP-6 expression ([2]; Cell lysate): 571.23 and 641.05
CK beta 8-1 expression ([2]; Cell lysate): 22.48 and 21.54
CNTF expression ([2]; Cell lysate): 1,382.51 and 1,060.82
EGF expression ([2]; Cell lysate): 742.24 and 984.39
Eotaxin expression ([2]; Cell lysate): 301.87 and 253.80
Eotaxin-3 expression ([2]; Cell lysate): 934.12 and 847.56
Flt-3 Ligand expression ([2]; Cell lysate): 857.45 and 795.19
Fractalkine expression ([2]; Cell lysate): 792.02 and 456.51
GCP-2 expression ([2]; Cell lysate): 593.71 and 538.86
GDNF expression ([2]; Cell lysate): 436.75 and 444.68
GM-CSF expression ([2]; Cell lysate): 1,343.17 and 1,161.75
I-309 expression ([2]; Cell lysate): 708.52 and 743.25
IFN-gamma expression ([2]; Cell lysate): 1,202.67 and 1,037.60
IGFBP-1 expression ([2]; Cell lysate): 59.41 and 85.73
IGFBP-2 expression ([2]; Cell lysate): 2,671.90 and 2,414.72
IGFBP-4 expression ([2]; Cell lysate): 4,459.85 and 4,173.19
IL-1alpha expression ([2]; Cell lysate): 1,612.93 and 1,421.89
IL-3 expression ([2]; Cell lysate): 2,119.94 and 1,497.48
IL-4 expression ([2]; Cell lysate): 625.42 and 638.94
IL-5 expression ([2]; Cell lysate): 1,245.23 and 1,167.24
IL-10 expression ([2]; Cell lysate): 1,222.75 and 1,096.30
IL-13 expression ([2]; Cell lysate): 1,486.89 and 1,407.96
IL-15 expression ([2]; Cell lysate): 1,677.16 and 1,601.79
IL-16 expression ([2]; Cell lysate): 651.11 and 668.50
Leptin expression ([2]; Cell lysate): 1,234.39 and 1,091.65
M-CSF expression ([2]; Cell lysate): 852.63 and 867.83
MCP-1 expression ([2]; Cell lysate): 1,022.03 and 1,076.03
MCP-3 expression ([2]; Cell lysate): 1,184.61 and 1,255.50
MCP-4 expression ([2]; Cell lysate): 1,380.51 and 1,606.86
MDC expression ([2]; Cell lysate): 269.36 and 280.41
MIG expression ([2]; Cell lysate): 1,113.16 and 1,137.26
MIP-1-delta expression ([2]; Cell lysate): 491.75 and 322.22
MIP-3-alpha expression ([2]; Cell lysate): 1,602.09 and 1,399.93
NT-3 expression ([2]; Cell lysate): 316.73 and 275.76
PARC expression ([2]; Cell lysate): 352.85 and 353.04
PDGF-BB expression ([2]; Cell lysate): 517.84 and 597.56
RANTES expression ([2]; Cell lysate): 724.98 and 637.25
SCF expression ([2]; Cell lysate): 1,152.50 and 1,021.13
TARC expression ([2]; Cell lysate): 372.93 and 343.33
TGF-beta 1 expression ([2]; Cell lysate): 1,426.67 and 1,240.30
TNF-alpha expression ([2]; Cell lysate): 2,851.74 and 1,285.91
TNF-beta expression ([2]; Cell lysate): 1,049.33 and 1,026.62
bFGF expression ([2]; Cell lysate): 11,722.95 and 21,398.52
IGFBP-1, TGFbeta-1 and TGFbeta-3 in cell lysates ([2]; Wnt3a treated vs Activin A only): upregulated
Angiogenin, IGFBP-1 and EGF in cell conditioned media ([2]; Wnt3 treated vs Activin A only): Noticeable upregulation
